One data set has as its system K562/Adr. In words: Antiproliferative activity against human Adriamycin-resistant K562/Adr cells assessed as inhibition of cell growth incubated for 48 hrs by MTT assay. The class given is functional, cell-based.
Data set [1] relates to BaF3. Description: Antiproliferative activity against mouse BaF3 cells expressing wild type Bcr-Abl assessed as inhibition of cell growth incubated for 72 hrs by CellTiter-Glo luminescent assay. The class given is functional, cell-based. As to conditions: BaF3, 72 h.
The subject of data set [2] is BaF3. Description: Antiproliferative activity against mouse BaF3 cells assessed as inhibition of cell growth incubated for 72 hrs by CellTiter-Glo luminescent assay. The class given is functional, cell-based. As to conditions: BaF3, 72 h.
The subject of the next data set is K-562R. In words: Antiproliferative activity against human K-562R cells expressing Bcr-Abl T315I mutant assessed as inhibition of cell growth incubated for 48 hrs by MTT assay. The class given is functional, cell-based.
Data set [3] relates to K562. In words: Antiproliferative activity against human K562 cells assessed as inhibition of cell growth incubated for 48 hrs by MTT assay. The following applies: K562, 48 h. The format is functional, cell-based.
For data set [4], the system named is K562. In words: Induction of cell cycle arrest in human K562 cells assessed as reduction in G0/G1 phase at 1 to 10 uM incubated for 48 hrs by PI staining based flow cytometry. As to conditions: dose 1-10 µM. The class given is functional.
The test system of data set [5] is K562. In words: Induction of apoptosis in human K562 cells assessed as early apoptotic cells at 1 uM incubated for 48 hrs by Annexin V-FITC/PI staining based flow cytometry analysis (Rvb= […]). The format is functional.
For data set [6], the system named is K562. In words: Induction of apoptosis in human K562 cells assessed as late apoptotic cells at 5 uM incubated for 48 hrs by Annexin V-FITC/PI staining based flow cytometry analysis (Rvb= 2.89%). The format is functional.
Data set [7] concerns K562. In words: Induction of apoptosis in human K562 cells assessed as late apoptotic cells at 10 uM incubated for 48 hrs by Annexin V-FITC/PI staining based flow cytometry analysis (Rvb= 2.89%). The format is functional.
The test system of data set [8] is K562. In words: Induction of apoptosis in human K562 cells assessed as necrotic cells at 1 uM incubated for 48 hrs by Annexin V-FITC/PI staining based flow cytometry analysis (Rvb= 0.29%). The class given is functional.
Data set [9] has as its system K562. Description: Induction of apoptosis in human K562 cells assessed as early apoptotic cells at 10 uM incubated for 48 hrs by Annexin V-FITC/PI staining based flow cytometry analysis (Rvb= […]). The format is functional.
Data set [10] has as its system K562. Description: Induction of cell cycle arrest in human K562 cells assessed as accumulation at S phase at 1 to 10 uM incubated for 48 hrs by PI staining based flow cytometry. The format is functional. The following applies: dose 1-10 µM.
Data set [11] has as its target Bcr/Abl fusion protein (Homo sapiens, UniProt P00519, T315I). Description: Inhibition of Bcr-Abl T315I mutant (unknown origin) incubated for 1 hr in presence of ATP by ADP-Glo kinase assay. The format is protein assay.
Data set [12] relates to K562. In words: Induction of apoptosis in human K562 cells assessed as viable cells at 5 uM incubated for 48 hrs by Annexin V-FITC/PI staining based flow cytometry analysis (Rvb= 80.56%). The format is functional. The following applies: read-out: Activity.
The test system of data set [13] is BaF3. Description: Antiproliferative activity against mouse BaF3 cells expressing Bcr-Abl T315I mutant assessed as inhibition of cell growth incubated for 72 hrs by CellTiter-Glo luminescent assay. The following applies: BaF3, 72 h. The class given is functional, cell-based.
For data set [14], the system named is K562. In words: Induction of apoptosis in human K562 cells assessed as early apoptotic cells at 5 uM incubated for 48 hrs by Annexin V-FITC/PI staining based flow cytometry analysis (Rvb= […]). The format is functional.
Data set [15] relates to K562. Description: Induction of apoptosis in human K562 cells assessed as viable cells at 10 uM incubated for 48 hrs by Annexin V-FITC/PI staining based flow cytometry analysis (Rvb= 80.56%). As to conditions: read-out: Activity. The format is functional.
In data set [16] the test system is K562. Description: Induction of apoptosis in human K562 cells assessed as viable cells at 1 uM incubated for 48 hrs by Annexin V-FITC/PI staining based flow cytometry analysis (Rvb= 80.56%). The format is functional. As to conditions: read-out: Activity.
Data set [17] deals with K562. In words: Induction of apoptosis in human K562 cells assessed as late apoptotic cells at 1 uM incubated for 48 hrs by Annexin V-FITC/PI staining based flow cytometry analysis (Rvb= 2.89%). The class given is functional.
Data set [18] deals with T1, Signal transducer and activator of transcription 5A (Homo sapiens) (UniProt P42229).
T1 sequence (whole entry): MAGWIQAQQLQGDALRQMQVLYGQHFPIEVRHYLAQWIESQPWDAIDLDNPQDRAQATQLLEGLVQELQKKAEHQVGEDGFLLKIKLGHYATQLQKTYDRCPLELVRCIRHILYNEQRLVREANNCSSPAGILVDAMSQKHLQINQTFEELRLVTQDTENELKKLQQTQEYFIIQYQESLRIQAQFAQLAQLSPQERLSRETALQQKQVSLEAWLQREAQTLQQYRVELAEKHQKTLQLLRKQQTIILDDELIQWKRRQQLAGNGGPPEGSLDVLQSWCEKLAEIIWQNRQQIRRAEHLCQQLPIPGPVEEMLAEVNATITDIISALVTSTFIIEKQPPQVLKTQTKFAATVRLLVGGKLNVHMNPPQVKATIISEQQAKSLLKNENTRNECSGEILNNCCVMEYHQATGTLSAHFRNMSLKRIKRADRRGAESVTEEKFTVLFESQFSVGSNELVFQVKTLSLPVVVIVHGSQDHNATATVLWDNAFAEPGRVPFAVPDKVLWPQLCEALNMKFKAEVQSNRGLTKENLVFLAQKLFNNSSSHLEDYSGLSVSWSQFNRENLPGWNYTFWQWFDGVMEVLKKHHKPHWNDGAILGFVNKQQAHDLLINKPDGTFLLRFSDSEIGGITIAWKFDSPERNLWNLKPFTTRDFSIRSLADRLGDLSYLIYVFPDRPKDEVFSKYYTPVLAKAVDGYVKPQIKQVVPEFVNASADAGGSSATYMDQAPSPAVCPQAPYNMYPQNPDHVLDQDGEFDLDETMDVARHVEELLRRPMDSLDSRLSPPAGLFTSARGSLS
Description: Inhibition of STAT5 phosphorylation at Tyr694 residue in human K562 cells expressing wild type Bcr-Abl at 0.1 to 15 uM measured after 48 hrs by Western blot analysis. The class given is cell-based. As to conditions: dose 0.1-15 µM, DDE = dose-dependent effect.

In another data set the test system is EA.hy 926. Description: Cytotoxicity against human EA.hy 926 cells assessed as inhibition of cell growth upto 100 uM incubated for 48 hrs by MTT assay. The following applies: ea.hy 926, 48 h. The format is toxicity, cell-based.
Data set [19] relates to BaF3. In words: Antiproliferative activity against mouse BaF3 cells expressing Bcr-Abl T315I mutant assessed as inhibition of cell growth at 30 uM incubated for 72 hrs by CellTiter-Glo luminescent assay. The class given is functional.
For data set [20], the system named is K562. In words: Induction of apoptosis in human K562 cells assessed as necrotic cells at 10 uM incubated for 48 hrs by Annexin V-FITC/PI staining based flow cytometry analysis (Rvb= 0.29%). The format is functional.
The target in data set [21] is Bcr/Abl fusion protein (Homo sapiens, UniProt P00519). In words: Inhibition of wild type Bcr-Abl (unknown origin) incubated for 1 hr in presence of ATP by ADP-Glo kinase assay. The class given is protein assay.
For another data set, the system named is HEK293. Description: Cytotoxicity against human HEK293 cells assessed as inhibition of cell growth upto 100 uM incubated for 48 hrs by MTT assay. The class given is toxicity, cell-based. As to conditions: hek293, 48 h.
The subject of data set [22] is K562. In words: Induction of apoptosis in human K562 cells assessed as necrotic cells at 5 uM incubated for 48 hrs by Annexin V-FITC/PI staining based flow cytometry analysis (Rvb= 0.29%). The class given is functional.
The target in data set [23] is Bcr/Abl fusion protein (Homo sapiens) (UniProt P00519+P11274). Description: Inhibition of Bcr-Abl phosphorylation at Tyr245 residue in human K562 cells expressing wild type Bcr-Abl at 5 to 15 uM measured after 48 hrs by Western blot analysis. The format is cell-based. As to conditions: dose 5-15 µM.

Calls of active or inactive are those of the source. The rule behind the calls is not given here. Some results are limits rather than exact numbers.

Take `Cc1ccc(NC(=O)c2ccc(CN3CCN(C)CC3)cc2)cc1Nc1nccc(-c2cccnc2)n1` [IMATINIB]: the half-maximal inhibitory concentration (IC50) is 13500 nM with K562/Adr; 230 nM in the data set with BaF3 [1]; 10000 nM in the data set on BaF3 [2]; 93000 nM in the data set on K-562R; 1100 nM in the data set with K562 [3].

For `Cc1ccc(C(=O)Nc2ccc(CN3CCN(C)CC3)c(C(F)(F)F)c2)cc1C#Cc1cnc2cccnn12` [PONATINIB], in the data set with K-562R, the half-inhibitory concentration (IC50) turned out to be 80 nM.

Regarding `CS(=O)(=O)Nc1ccc(-c2cn([C@@H]3CN[C@H](C(=O)Nc4ccc(Cl)c(C(F)(F)F)c4)C3)nn2)cn1`, the IC50 in the data set with K562/Adr was 4720 nM; with BaF3 [1], 6960 nM; on Bcr/Abl fusion protein [11], 111 nM; in the data set with BaF3 [13], 4130 nM; in the data set on BaF3 [2], over 20000 nM; on Bcr/Abl fusion protein [21], 0.49 nM. For the same compound, the IC50 was 13400 nM in the data set on K-562R and 5060 nM in the data set on K562 [3]. For the same compound, the outcome with K562 [4] and in the data set with K562 [10] was Active. Also, the Activity in the data set with K562 [5] was 18.03%; in the data set on K562 [6], 3.19%; in the data set with K562 [7] it was 4.11%; in the data set with K562 [8], 0.19%; in the data set with K562 [9], 23.79%; in the data set with K562 [14], 17.14%. For the same compound, the Activity in the data set with K562 [17] is 2.43%; in the data set on EA.hy 926, “Non-Toxic”; in the data set on K562 [20] it was 0.28%; in the data set on HEK293 it was “Non-Toxic”; with K562 [22] it was 0.4%. Also, the viability at 5 µM with K562 [12] was 79.3%. Besides, the viability at 10 µM in the data set on K562 [15] stood at 71.8%. Further, in the data set on K562 [16], the viability at 1 µM was 79.3%. The inhibition entry in data set [18] is “Dde”. For the same compound, in the data set on BaF3 [19], the inhibition at 30 µM amounted to 99.7%. Further, the inhibition result in data set [23] is “Active”.

Consider `CC(=O)Nc1n[nH]c2cc(-c3cn([C@@H]4CN[C@H](C(=O)Nc5ccc(Cl)cc5Cl)C4)nn3)ccc12`, for which the 50% inhibitory concentration (IC50) in the data set on K562/Adr worked out at 1230 nM; on Bcr/Abl fusion protein [11], 135 nM; at Bcr/Abl fusion protein [21], 3.15 nM; in the data set on K562 [3], 2090 nM. Besides, the inhibition at 30 µM in the data set on BaF3 [19] is 25.5%.

Regarding `Nc1ccc(-c2cn([C@@H]3CN[C@H](C(=O)Nc4ccc(Cl)c(C(F)(F)F)c4)C3)nn2)cn1`, the half-maximal inhibitory concentration (IC50) in the data set with K562/Adr worked out at 25200 nM; at Bcr/Abl fusion protein [11] it was 303 nM; at Bcr/Abl fusion protein [21], 3.11 nM; in the data set with K562 [3], 10400 nM. Further, the inhibition at 30 µM in the data set on BaF3 [19] amounted to 27.9%.

As to `C=CC(=O)Nc1ccc(-c2cn([C@@H]3CN[C@H](C(=O)Nc4ccc(Cl)c(C(F)(F)F)c4)C3)nn2)cn1`, the 50% inhibitory concentration (IC50) is 80400 nM in the data set with K562/Adr, 140 nM at Bcr/Abl fusion protein [11], 9.26 nM on Bcr/Abl fusion protein [21] and 3860 nM in the data set with K562 [3]. In addition, the inhibition at 30 µM in the data set with BaF3 [19] worked out at 26%.

As for `CC(=O)Nc1n[nH]c2cc(-c3cn([C@@H]4CN[C@H](C(=O)Nc5ccc(Br)cc5)C4)nn3)ccc12`, the IC50 with K562/Adr amounted to 1000 nM; at Bcr/Abl fusion protein [11], 343 nM; on Bcr/Abl fusion protein [21], 5.85 nM; with K562 [3], 3830 nM. The inhibition at 30 µM with BaF3 [19] amounted to 21.8%.

Consider `CCN1CCN(c2cc(NC(=O)[C@@H]3C[C@H](n4cc(-c5ccc6c(N)n[nH]c6c5)nn4)CN3)ccc2Cl)CC1`, for which the 50% inhibitory concentration (IC50) with K562/Adr worked out at 12600 nM; on Bcr/Abl fusion protein [11] it was 84.8 nM; at Bcr/Abl fusion protein [21], 8.71 nM; in the data set on K562 [3], 180 nM. Besides, the inhibition at 30 µM in the data set on BaF3 [19] is 20%.

The record behind these values is ChEMBL document CHEMBL5113400, “Design, synthesis, and biological evaluation of trizole-based heteroaromatic derivatives as Bcr-Abl kinase inhibitors” (Eur J Med Chem, 2022).
